According to the Kinase Knowledgebase extract (Sharma et al. 2016):

target: MAPK14 (human) (UniProt Q16539); assay: Inhibition of MAPK14 Kinase Activity
Sequence (Q16539 whole entry, looked up): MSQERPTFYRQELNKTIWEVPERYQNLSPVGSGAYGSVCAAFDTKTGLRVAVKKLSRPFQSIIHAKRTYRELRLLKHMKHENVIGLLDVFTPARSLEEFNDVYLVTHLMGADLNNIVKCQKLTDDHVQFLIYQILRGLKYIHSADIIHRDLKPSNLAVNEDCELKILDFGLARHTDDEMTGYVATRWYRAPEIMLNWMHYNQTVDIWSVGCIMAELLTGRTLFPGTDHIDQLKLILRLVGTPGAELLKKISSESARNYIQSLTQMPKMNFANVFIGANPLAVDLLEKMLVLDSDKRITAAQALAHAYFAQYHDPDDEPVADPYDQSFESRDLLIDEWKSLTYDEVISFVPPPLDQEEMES

IC50, ≤ 10 µM:
CN1CCC(Nc2cc(Cl)c(N3CC(Cc4ccc(F)cc4F)CCC3=O)c(Cl)c2)CC1 (centres undefined), O=C1CCC(Sc2ccc(F)cc2)CN1c1c(Cl)cncc1Cl (centres undefined), O=C1CCC(Sc2ccc(F)cc2F)CN1C1C(Cl)CCC(O)C1Cl (centres undefined), O=C1CCC(Sc2ccccc2)CN1c1c(Cl)cccc1Cl (centres undefined), COc1ccccc1OC1CCC(=O)N(C2C(Cl)CCCC2Cl)C1 (centres undefined), Cc1cc(C)cc(CC2CCC(=O)N(c3c(Cl)ccnc3Cl)C2)c1 (centres undefined), CC(=O)Nc1sc(Cl)c(N2CC(Cc3ccc(F)cc3F)CCC2=O)c1Cl (centres undefined), CNC1CCC(Cl)C(N2CC(Sc3ccc(F)cc3F)CCC2=O)C1Cl (centres undefined), Cc1ccc(OC2CCC(=O)N(c3c(Cl)csc3Cl)C2)c(C)c1 (centres undefined), CN1CC(Cc2cc(F)cc(F)c2)CN(c2c(Cl)cccc2Cl)C1=O (centres undefined), Cc1ccccc1CC1CCC(=O)N(C2C(Cl)CCCC2Cl)C1 (centres undefined), O=C1CCC(Cc2cc(Cl)cc(Cl)c2)CN1c1c(Cl)cccc1Cl (centres undefined), O=C1CCC(Oc2ccccc2F)CN1c1c(Cl)csc1Cl (centres undefined), CCOC(=O)CCC(=O)Nc1cc(Cl)c(N2CC(Cc3ccc(F)cc3F)CCC2=O)c(Cl)c1 (centres undefined), O=C1CCC(Cc2ccc(F)cc2F)CN1c1c(Cl)cc(NCCO)cc1Cl (centres undefined), Cc1ccccc1SC1CCC(=O)N(c2c(Cl)cccc2Cl)C1 (centres undefined), O=C(Cc1ccccc1)NC1CC(Cl)C(N2CC(Oc3ccc(F)cc3F)CCC2=O)C(Cl)C1 (centres undefined), CNC1CC(Cl)C(N2CC(Oc3ccc(F)cc3F)CCC2=O)C(Cl)C1 (centres undefined), Cc1cc(C)cc(OC2CCC(=O)N(c3c(Cl)cccc3Cl)C2)c1 (centres undefined), O=C1CCC(Cc2ccccc2)CN1C1C(Cl)CCCC1Cl (centres undefined), O=C1CCC(Oc2ccc(Cl)cc2Cl)CN1c1c(Cl)cncc1Cl (centres undefined), O=C(Cc1ccccc1)Nc1ccc(Cl)c(N2CC(Cc3ccc(F)cc3F)CCC2=O)c1Cl (centres undefined), O=C1NCC(Cc2ccccc2)CN1c1c(Cl)cccc1Cl (centres undefined), CCN(CC)CCNc1cc(Cl)c(N2CC(Cc3ccc(F)cc3F)CCC2=O)c(Cl)c1 (centres undefined), O=C(O)CCC(=O)Nc1cc(Cl)c(N2CC(Cc3ccc(F)cc3F)CCC2=O)c(Cl)c1 (centres undefined), O=C1CCC(Cc2ccc(F)cc2F)CN1c1c(Cl)cc(C#CCO)cc1Cl (centres undefined), COc1ccc(SC2CCC(=O)N(c3c(Cl)csc3Cl)C2)cc1 (centres undefined), O=C1CCC(Sc2ccc(F)cc2F)CN1c1c(Cl)cncc1Cl (centres undefined), Cc1cc(C)cc(CC2CN(C)C(=O)N(c3c(Cl)cccc3Cl)C2)c1 (centres undefined), O=C1CCC(Cc2ccc(F)cc2F)CN1c1c(Cl)ccc(O)c1Cl (centres undefined), Cc1ccccc1OC1CCC(=O)N(c2c(Cl)cncc2Cl)C1 (centres undefined), O=C1CCC(Cc2ccc(F)cc2F)(Cc2ccc(F)cc2F)CN1c1c(Cl)cccc1Cl, O=C(O)CNc1cc(Cl)c(N2CC(Cc3ccc(F)cc3F)CCC2=O)c(Cl)c1 (centres undefined), O=C1CCC(Sc2ccc(F)cc2F)CN1c1c(Cl)cnc(CO)c1Cl (centres undefined), O=C1CCC(Sc2ccc(F)cc2F)CN1c1c(Cl)ccc(O)c1Cl (centres undefined), CC(=O)Nc1cc(Cl)c(N2CC(Oc3ccc(F)cc3F)CCC2=O)c(Cl)c1 (centres undefined), O=C1CCC(Cc2ccc(F)cc2F)CN1c1c(Cl)cc(O)cc1Cl (centres undefined), CN1CC(Cc2ccc(F)cc2F)CN(c2c(Cl)ccc(O)c2Cl)C1=O (centres undefined), Cc1cc(C(=O)NCCN(C)C)cc(C)c1N1CC(Cc2ccc(F)cc2F)CCC1=O (centres undefined), CNc1ccc(Cl)c(N2CC(Cc3ccc(F)cc3F)COC2=O)c1Cl (centres undefined), O=C1CCC(Sc2ccc(Cl)cc2)CN1c1c(Cl)csc1Cl (centres undefined), O=C1CCC(Cc2ccc(F)cc2F)CN1c1c(Cl)cncc1Cl (centres undefined), CN1CC(Cc2ccc(F)cc2F)CN(c2c(Cl)ccc(NC(=O)Cc3ccccc3)c2Cl)C1=O (centres undefined), O=C1CCC(Oc2ccccc2F)CN1c1c(Cl)cccc1Cl (centres undefined), Cc1ccc(OC2CCC(=O)N(c3c(Cl)cccc3Cl)C2)c(C)c1 (centres undefined), COc1ccc(CC2CCC(=O)N(C3C(Cl)CCCC3Cl)C2)cc1 (centres undefined), O=C1CCC(Cc2ccc(Cl)cc2)CN1c1c(Cl)ccnc1Cl (centres undefined), C[C@@H]1C[C@H](Cc2ccc(F)cc2F)CN(c2c(Cl)cc(NC(=O)OC(C)(C)C)cc2Cl)C1=O, O=C1CCC(Oc2ccc(F)cc2)CN1C1C(Cl)CCCC1Cl (centres undefined), Cc1ccc(OC2CCC(=O)N(c3c(Cl)cccc3Cl)C2)cc1 (centres undefined), O=C1CCC(Cc2ccc(F)cc2)CN1c1c(Cl)csc1Cl (centres undefined), O=C1CSC(Cc2cc(F)cc(F)c2)CN1c1c(Cl)cccc1Cl (centres undefined), O=C(NCc1ccccc1CC1CCC(=O)N(c2c(Cl)cccc2Cl)C1)Nc1ccccc1 (centres undefined), Cc1ccccc1OC1CCC(=O)N(c2c(Cl)csc2Cl)C1 (centres undefined), O=C1CCC(Sc2ccccc2F)CN1c1c(Cl)cccc1Cl (centres undefined), Cc1ccc(CC2CCC(=O)N(c3c(Cl)cccc3Cl)C2)cc1 (centres undefined), O=C1CCC(Oc2ccccc2)CN1c1c(Cl)cncc1Cl (centres undefined), O=C1OCCN1c1cc(Cl)c(N2CC(Cc3ccc(F)cc3F)CCC2=O)c(Cl)c1 (centres undefined), CNc1sc(Cl)c(N2CC(Oc3ccc(F)cc3F)CCC2=O)c1Cl (centres undefined), Cc1cc(C(=O)NCCCN(C)C)cc(C)c1N1CC(Cc2ccc(F)cc2F)CCC1=O (centres undefined), Cc1cc(C)cc(OC2CCC(=O)N(C3C(Cl)CCCC3Cl)C2)c1 (centres undefined), CNc1sc(Cl)c(N2CC(Cc3ccc(F)cc3F)CCC2=O)c1Cl (centres undefined), CC(=O)NC1CCC(Cl)C(N2CC(Sc3ccc(F)cc3F)CCC2=O)C1Cl (centres undefined), Cc1cc(C(=O)NCCN(C)C)cc(C)c1N1C[C@@H](Cc2ccc(F)cc2F)C[C@@H](C)C1=O, O=C(Cc1ccccc1)Nc1ccc(Cl)c(N2CC(Cc3ccc(F)cc3F)OCC2=O)c1Cl (centres undefined), CC(=O)Nc1ccc(Cl)c(N2CC(Cc3ccc(F)cc3F)COC2=O)c1Cl (centres undefined), Cc1ccccc1CC1CCC(=O)N(c2c(Cl)ccnc2Cl)C1 (centres undefined), O=C1CCC(Sc2ccccc2F)CN1c1c(Cl)csc1Cl (centres undefined), Cc1ccccc1CC1CN(C)C(=O)N(c2c(Cl)cccc2Cl)C1 (centres undefined), CN(C)CCNC(=O)c1cc(Cl)c(N2CC(Cc3ccc(F)cc3F)CCC2=O)c(Cl)c1 (centres undefined), O=C1NCC(Cc2ccc(F)cc2)CN1c1c(Cl)cccc1Cl (centres undefined), O=C1CC/C(=C\c2ccc(F)cc2F)CN1c1c(Cl)cc(Br)cc1Cl, O=C1CCC(Cc2cc(F)cc(F)c2)CN1c1c(Cl)cncc1Cl (centres undefined), CCNC(=O)Nc1cc(Cl)c(N2CC(Cc3ccc(F)cc3F)CCC2=O)c(Cl)c1 (centres undefined), Cc1cc(CCCCC(=O)O)cc(C)c1N1CC(Cc2ccc(F)cc2F)CCC1=O (centres undefined), Cc1ccc(SC2CCC(=O)N(c3c(Cl)cccc3Cl)C2)cc1 (centres undefined), CNc1cc(Cl)c(N2CC(Cc3ccc(F)cc3F)SCC2=O)c(Cl)c1 (centres undefined), O=C1NCC(Cc2ccc(F)cc2F)CN1c1c(Cl)cc(CO)cc1Cl (centres undefined), COc1ccccc1CC1CCC(=O)N(c2c(Cl)ccnc2Cl)C1 (centres undefined), COC(=O)/C=C/c1ccccc1CC1CCC(=O)N(c2c(C)cccc2C)C1 (centres undefined), O=C1CCC(Sc2ccc3ccccc3c2)CN1c1c(Cl)cccc1Cl (centres undefined), O=C1CCC(Sc2cc(F)cc(F)c2)CN1c1c(Cl)ccnc1Cl (centres undefined), CC(C)(C)OC(=O)Nc1cc(Cl)c(N2CC(Cc3ccc(F)cc3F)CCC2=O)c(Cl)c1 (centres undefined), COc1ccccc1SC1CCC(=O)N(c2c(Cl)csc2Cl)C1 (centres undefined), O=C1CCC(Sc2ccc(F)cc2F)CN1c1c(Cl)ccnc1Cl (centres undefined), C[C@@H]1C[C@H](Cc2ccc(F)cc2F)CN(c2c(Cl)cccc2Cl)C1=O, CNc1cc(Cl)c(N2CC(Cc3ccc(F)cc3F)COC2=O)c(Cl)c1 (centres undefined), Cc1cc(C)cc(CC2CN(c3c(Cl)cccc3Cl)C(=O)CS2)c1 (centres undefined), CN1CC(Cc2ccc(F)cc2F)CN(c2c(Cl)cc(CO)cc2Cl)C1=O (centres undefined), Cc1ccccc1CC1CCC(=O)N(c2c(Cl)cccc2Cl)C1 (centres undefined), CNc1ccc(Cl)c(N2CC(Oc3ccc(F)cc3F)CCC2=O)c1Cl (centres undefined), Cc1cc(C)cc(SC2CCC(=O)N(c3c(Cl)cncc3Cl)C2)c1 (centres undefined), O=C1CCC(Sc2ccccc2)CN1C1C(Cl)CCCC1Cl (centres undefined), O=C1OCC(Cc2ccccc2F)CN1c1c(Cl)cccc1Cl (centres undefined), O=C1SCC(Cc2ccccc2Cl)CN1c1c(Cl)cccc1Cl (centres undefined), O=C1CCC(Cc2ccc(F)cc2F)CN1c1c(Cl)cnc(O)c1Cl (centres undefined), O=C1OCC(Cc2ccc(F)cc2F)CN1c1c(Cl)cccc1Cl (centres undefined), COc1ccccc1OC1CCC(=O)N(c2c(Cl)csc2Cl)C1 (centres undefined), O=C1CCC(Oc2ccc(F)cc2F)CN1c1c(Cl)cc(O)nc1Cl (centres undefined)
